Test results as given in patent US5225437A, “1,2,4-trioxane compounds having antimalarial activity” (The Johns Hopkins University, priority 1992, dated 1993).
pIC50: −log10 of the molar value. Entries after “also recorded” stand apart in the source; their conditions may differ. Read-outs that look alike come from different tables or passages of the source.

What was measured:
[1] = system: W-2 Indochine Clone; conditions: cited from earlier work; for pIC50: Table V, read-out: Fifty Percent Inhibitory Concentrations, W-2 Indochine Clone; for Artemisinin Indices, W-2 Indochine Clone: intrinsic equimolar activity relative to the simultaneous artemisinin control
[2] = system: D-6 Sierra Leone Clone; conditions: cited from earlier work; for pIC50: Table V, read-out: Fifty Percent Inhibitory Concentrations, D-6 Sierra Leone Clone; for Artemisinin Indices, D-6 Sierra Leone Clone: intrinsic equimolar activity relative to the simultaneous artemisinin control
[3] = system: P. falciparum malaria parasite clone Indochina (W-2); assay: in vitro susceptibility testing, uptake of tritiated hypoxanthine as index of inhibition of parasite growth, Indochina (W-2) clone; format: cell-based; conditions: Plasmodium falciparum; for pIC50: read-out: W2 IC50
[4] = system: P. falciparum malaria parasite clone Sierra Leone (D-6); assay: in vitro susceptibility testing, uptake of tritiated hypoxanthine as index of inhibition of parasite growth, Sierra Leone (D-6) clone; conditions: Plasmodium falciparum; for pIC50: read-out: D6 IC50
[5] = system: P. falciparum D-6 African Clone; assay: anti-malarial in vitro testing against P. falciparum clones, D-6 African clone; format: cell-based; conditions: Table VI, D-6 value over W-2 value
[6] = system: P. falciparum malaria parasite clones; assay: anti-malarial activity in words (overall, both P. falciparum clones)
[7] = compared with known anti-malarial drugs
[8] = Table III, INDOCHINA CLONE (W-2), read-out: IC90
[9] = Table IV, W2, read-out: W2 IC90

| SMILES | pIC50 [1] | Artemisinin Indices, W-2 Indochine Clone [1] | pIC50 [2] | Artemisinin Indices, D-6 Sierra Leone Clone [2] | pIC50 ([3]; Table IV, W2) | pIC50 [4] | IC90 [4] [nM] | further results |
| --- | --- | --- | --- | --- | --- | --- | --- | --- |
| CCO[C@@H]1O[C@@H]2O[C@@]3(C)CC[C@H]4[C@H](C)CC[C@@H]([C@H]1C)[C@@]24OO3 [Arteether (alpha)] | 8.51 | 2.08 | 8.38 | 2.52 |  |  |  |  |
| CCO[C@H]1O[C@@H]2O[C@@]3(C)CC[C@H]4[C@H](C)CC[C@@H]([C@H]1C)[C@@]24OO3 [Arteether (beta)] | 8.53 | 2.18 | 8.39 | 2.58 |  |  |  |  |
| C[C@H]1[C@@H](OCc2ccc(C(=O)O)cc2)O[C@@H]2O[C@@]3(C)CC[C@H]4[C@H](C)CC[C@@H]1[C@@]24OO3 [Artelinic Acid] | 8.48 | 1.94 | 8.01 | 1.08 |  |  |  |  |
| CO[C@H]1O[C@@H]2O[C@@]3(C)CC[C@H]4[C@H](C)CC[C@@H]([C@H]1C)[C@@]24OO3 [Artemether] | 8.48 | 1.92 | 8.35 | 2.34 |  |  |  |  |
| C[C@@H]1CC[C@H]2[C@@H](C)C(=O)O[C@@H]3O[C@@]4(C)CC[C@@H]1[C@]32OO4 [Artemisinin, artemisinin] | 8.19 | 1.00 | 7.98 | 1.00 | 9.17 | 9.16 |  | Ratio of D-6/W-2 [5]: 2.4 |
| CCN(CC)CCCC(C)Nc1ccnc2cc(Cl)ccc12 (stereo not shown) [Chloroquine] | 7.00 | 0.06 | 7.96 | 0.97 |  | 8.92 |  | pIC50 [3]: 7.21; Ratio of D-6/W-2 [5]: 0.1 |
| COC(=O)c1ccc(C(=O)OCCC2CCCC3CCC4(C)OOC23C(OC)O4)cc1 (stereo not shown) [Compound 19] |  |  |  |  |  |  |  | anti-malarial activity / potency in words [6, 7]: substantial improvement over artemisinin; also recorded: comparable in potency to arteether; also recorded: comparable in potency to artemether; also recorded: considerably higher potency than the clinically used Chinese drug, artemisinin |
| COC1OC2(C)CCC3CCCC(CCOC(=O)c4ccc(C(=O)OCCN(C)C)cc4)C31OO2 (stereo not shown) [Compound 20] |  |  |  |  |  |  | 20.4 | IC90 [3, 8]: 24.7 nM |
| CCN(CC)C(=O)c1ccc(C(=O)OCCC2CCCC3CCC4(C)OOC23C(OC)O4)cc1 (stereo not shown) [Compound 21] |  |  |  |  |  |  |  | anti-malarial activity / potency in words [6, 7]: substantial improvement over artemisinin; also recorded: comparable in potency to arteether; also recorded: comparable in potency to artemether; also recorded: considerably higher potency than the clinically used Chinese drug, artemisinin |
| COC1OC2(C)CCC3CCCC(CCOC(=O)c4ccc(C(=O)OCCC5CCCC6CCC7(C)OOC56C(OC)O7)cc4)C31OO2 (stereo not shown) [Compound 22] |  |  |  |  |  |  | 857 |  |
| COC1OC2(C)CCC3CCCC(CCOS(=O)(=O)c4ccc(C)cc4)C31OO2 (stereo not shown) [Compound 23] |  |  |  |  |  |  | 19 | IC90 [3, 8]: 10.2 nM |
| COC(=O)c1ccccc1S(=O)(=O)OCCC1CCCC2CCC3(C)OOC12C(OC)O3 (stereo not shown) [Compound 24] |  |  |  |  |  |  | 58.8 | IC90 [3, 8]: 19.7 nM |
| COC1OC2(C)CCC3CCCC(CCOC(=O)CNC(=O)OC(C)(C)C)C31OO2 (stereo not shown) [Compound 25] |  |  |  |  |  |  | 4.43 | anti-malarial activity / potency in words [6, 7]: substantial improvement over artemisinin |
| COC1OC2(C)CCC3CCCC(CCOC(=O)N(C)C)C31OO2 (stereo not shown) [Compound 26] |  |  |  |  |  |  | 3.93 | anti-malarial activity / potency in words [6, 7]: particularly potent; IC90 [3, 8]: 1.29 nM |
| COC1OC2(C)CCC3CCCC(CCOS(=O)(=O)N(C)C)C31OO2 (stereo not shown) [Compound 27] |  |  |  |  |  |  | 30.2 | IC90 [3, 8]: 23 nM |
| CCOP(=O)(OCC)OCCC1CCCC2CCC3(C)OOC12C(OC)O3 (stereo not shown) [Compound 28] |  |  |  |  |  |  | 0.99 | anti-malarial activity / potency in words [6]: substantial improvement over artemisinin; also recorded: comparable in potency to arteether; also recorded: higher potency than artemisinin; also recorded: particularly potent |

| SMILES | pIC50 [1] | Artemisinin Indices, W-2 Indochine Clone [1] | pIC50 [2] | Artemisinin Indices, D-6 Sierra Leone Clone [2] | pIC50 ([3]; Table IV, W2) | pIC50 [4] | IC90 [4] [nM] | further results |
| --- | --- | --- | --- | --- | --- | --- | --- | --- |
| COC1OC2(C)CCC3CCCC(CCOC(=O)N(c4ccccc4)c4ccccc4)C31OO2 (stereo not shown) [Compound 31] |  |  |  |  | > 9.80 | 9.57 |  | anti-malarial activity / potency in words [6, 7]: substantial improvement over artemisinin; also recorded: comparable in potency to arteether; also recorded: higher potency than artemisinin; also recorded: particularly potent; IC90 [3, 9]: < 0.18 nM; IC90 ([4]; read-out: D6 IC90): 2.25 nM |
| COC1OC2(C)CCC3CCCC(CCOS(=O)(=O)c4cccc5c(N(C)C)cccc45)C31OO2 (stereo not shown) [Compound 32] |  |  |  |  | 8.98 | 8.29 |  | IC90 [3, 9]: 7.17 nM; IC90 ([4]; read-out: D6 IC90): 10 nM |
| CCN(CC)C(=O)OCCC1CCCC2CCC3(C)OOC12C(OC)O3 (stereo not shown) [Compound 34] |  |  |  |  | > 9.55 | 9.41 |  | anti-malarial activity / potency in words [6, 7]: comparable in potency to arteether; also recorded: higher potency than artemisinin; also recorded: particularly potent; IC90 [3, 9]: < 0.28 nM; IC90 ([4]; read-out: D6 IC90): 1.18 nM |
| COC1OC2(C)CCC3CCCC(CCOC(=O)c4ccc(C(=O)O)cc4)C31OO2 (stereo not shown) [Compound 36] |  |  |  |  | 7.62 | 6.59 | 115 | IC90 [3, 8]: 46.1 nM; IC90 [3, 9]: 979 nM; IC90 ([4]; read-out: D6 IC90): 516 nM |
| COCCC1CCCC2CCC3(C)OOC12C(OC)O3 (stereo not shown) [Compound 101] |  |  |  |  |  |  | 13.7 | IC90 [3, 8]: 4.62 nM |
| COC1OC2(C)CCC3CCCC(CCOCc4ccccc4)C31OO2 (stereo not shown) [Compound 102] |  |  |  |  | 9.60 | 8.91 |  | anti-malarial activity / potency in words [6, 7]: particularly potent anti-malarial activity; IC90 [3, 9]: 1.53 nM; IC90 ([4]; read-out: D6 IC90): 3.27 nM |
| CCOP(=O)(COCCC1CCCC2CCC3(C)OOC12C(OC)O3)OCC (stereo not shown) [Compound 103] |  |  |  |  |  | 8.52 |  | pIC50 [3]: 9.02; IC90 ([3]; read-out: W2 IC90): 8.2 nM; IC90 ([4]; read-out: D6 IC90): 29.9 nM |
| C=CCOCCC1CCCC2CCC3(C)OOC12C(OC)O3 (stereo not shown) [Compound 104] |  |  |  |  | 9.49 | 8.97 |  | anti-malarial activity / potency in words [6, 7]: particularly potent anti-malarial activity; IC90 [3, 9]: 2.37 nM; IC90 ([4]; read-out: D6 IC90): 15.7 nM |
| COC1OC2(C)CCC3CCCC(CCOCc4c(C)noc4C)C31OO2 (stereo not shown) [Compound 105] |  |  |  |  | 9.47 | 8.74 |  | anti-malarial activity / potency in words [6, 7]: particularly potent anti-malarial activity; IC90 [3, 9]: 1.64 nM; IC90 ([4]; read-out: D6 IC90): 19.1 nM |
| COC1OC2(C)CCC3CCCC(CCI)C31OO2 (stereo not shown) [Compound 301] |  |  |  |  | > 9.49 | 8.94 |  | IC90 [3, 9]: < 0.32 nM; IC90 ([4]; read-out: D6 IC90): 6.33 nM |
| C[C@H]1[C@@H](O)O[C@@H]2O[C@@]3(C)CC[C@H]4[C@H](C)CC[C@@H]1[C@@]24OO3 [Dihydroartemisinin] | 8.75 | 3.58 | 8.74 | 5.75 |  |  |  |  |
| CCCCN(CCCC)CCC(O)c1cc2c(Cl)cc(Cl)cc2c2cc(C(F)(F)F)ccc12 (stereo not shown) [Halofantrine] | 9.12 | 8.43 | 8.11 | 1.35 |  |  |  |  |
| OC(c1cc(C(F)(F)F)nc2c(C(F)(F)F)cccc12)C1CCCCN1 (stereo not shown) [Mefloquine] | 8.24 | 1.11 | 7.48 | 0.31 | 9.96 | 8.45 |  |  |
| CCc1nc(N)nc(N)c1-c1ccc(Cl)cc1 [Pyrimethamine] | 6.75 | 0.03 | 9.40 | 26.11 | < 6.60 | 8.97 |  |  |
| C=C[C@H]1C[N@@]2CC[C@H]1C[C@H]2[C@H](O)c1ccnc2ccc(OC)cc12 [Quinine] |  |  |  | 0.09 |  |  |  |  |
| COc1ncnc(NS(=O)(=O)c2ccc(N)cc2)c1OC [Sulfadoxine] | 4.09 | < 0.01 | 7.05 | 0.11 |  |  |  |  |
